In article PMC10746543, “Design principles for cyclin K molecular glue degraders” (Nature Chemical Biology, 2023):
pIC50: −log10 of the molar value. “And” between values parts separate entries of the source, which are not always exact repeats. Identical values can stand only once. Like-named read-outs stand apart in the source and are kept apart here.

Target: CDK12–cyclin K (Homo sapiens, UniProt Q9NYV4)
Test: Lanthascreen kinase binding assay, CDK12
Conditions: for IC50: Supplementary Table 2, read-out: Lanthascreen IC50 [nM] CDK12; for Lanthascreen raw signal, sheet CDK12: duplicates
Procedure: Lanthascreen experiments were performed using commercially available reagents (Thermo Fisher) and according to the manufacturer’s instructions.

[1] = compound 0.038147 nM, series r13
[2] = compound 0.152588 nM, series r13
[3] = compound 0.610352 nM, series r13
[4] = compound 9.76563 nM, series r13
[5] = compound 39.0625 nM, series r13

Sequence of CDK12–cyclin K (Q9NYV4 713-1052): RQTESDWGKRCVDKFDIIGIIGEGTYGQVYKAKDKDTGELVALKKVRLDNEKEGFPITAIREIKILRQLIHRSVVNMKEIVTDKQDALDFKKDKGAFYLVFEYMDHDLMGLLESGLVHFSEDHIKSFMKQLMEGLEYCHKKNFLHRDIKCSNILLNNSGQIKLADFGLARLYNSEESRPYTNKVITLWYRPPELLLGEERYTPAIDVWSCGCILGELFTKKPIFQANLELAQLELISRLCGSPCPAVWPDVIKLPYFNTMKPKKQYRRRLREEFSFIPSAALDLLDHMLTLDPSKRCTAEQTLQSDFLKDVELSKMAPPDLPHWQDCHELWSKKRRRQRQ
Sequence of CDK12–cyclin K (O75909 1-267 partner limits assumed): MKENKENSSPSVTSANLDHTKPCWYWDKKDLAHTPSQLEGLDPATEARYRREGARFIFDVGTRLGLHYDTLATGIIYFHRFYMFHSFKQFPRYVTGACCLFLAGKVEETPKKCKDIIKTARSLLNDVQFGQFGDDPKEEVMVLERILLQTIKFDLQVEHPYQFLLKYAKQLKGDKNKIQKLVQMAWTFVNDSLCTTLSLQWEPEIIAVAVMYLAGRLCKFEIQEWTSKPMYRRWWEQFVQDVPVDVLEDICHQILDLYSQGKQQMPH

Row | SMILES | IC50 [nM] | Lanthascreen raw signal, sheet CDK12 [1] | Lanthascreen raw signal, sheet CDK12 [2] | Lanthascreen raw signal, sheet CDK12 [3] | Lanthascreen raw signal, sheet CDK12 (compound 1.02544 nM, series r1) | Lanthascreen raw signal, sheet CDK12 (compound 3.15521 nM, series r1) | Lanthascreen raw signal, sheet CDK12 (compound 9.46563 nM, series r1) | Lanthascreen raw signal, sheet CDK12 [4] | Lanthascreen raw signal, sheet CDK12 (compound 31.5521 nM, series r1) | Lanthascreen raw signal, sheet CDK12 [5] | Lanthascreen raw signal, sheet CDK12 (compound 99.3891 nM, series r1) | Lanthascreen raw signal, sheet CDK12 (compound 156.25 nM, series r13) | Lanthascreen raw signal, sheet CDK12 (compound 315.521 nM, series r1) | Lanthascreen raw signal, sheet CDK12 (compound 625 nM, series r13) | Lanthascreen raw signal, sheet CDK12 (compound 2500 nM, series r13) | Lanthascreen raw signal, sheet CDK12 (compound 3155.21 nM, series r1) | Lanthascreen raw signal, sheet CDK12 (compound 10000 nM, series r13) | Lanthascreen raw signal, sheet CDK12 (compound 10002 nM, series r1) | pIC50 (Lanthascreen, average, Extended Data Fig. 8, read-out: CDK12 IC50)
1 | O=C(CSc1nc2ccccc2[nH]1)Nc1ccc(Cl)cn1 [dCeMM3] | 2670 | 0.01104 and 0.01163 | 0.01112 and 0.01168 | 0.01247 and 0.01238 | 0.009603 and 0.009325 | 0.009514 and 0.008733 | 0.008364 and 0.009802 | 0.01196 and 0.01162 | 0.009806 and 0.008597 | 0.01144 and 0.01131 | 0.01036 and 0.01052 | 0.01124 and 0.01129 | 0.008735 and 0.009176 | 0.01063 and 0.01139 | 0.009917 and 0.009154 | 0.007612 and 0.007481 | 0.007835 and 0.008247 | 0.006896 and 0.007143 | 
2 | O=C(CSc1nnc2c(n1)[nH]c1ccccc12)Nc1ccc(Cl)cn1 [dCeMM2] | > 10000 | 0.0112 and 0.01094 | 0.01131 and 0.01094 | 0.0113 and 0.01155 | 0.009008 and 0.01048 | 0.01033 and 0.00928 | 0.007656 and 0.01097 | 0.01084 and 0.01176 | 0.008129 and 0.008647 | 0.01123 and 0.01099 | 0.008644 and 0.009455 | 0.01158 and 0.0119 | 0.008456 and 0.007711 | 0.01045 and 0.01083 | 0.01145 and 0.01174 | 0.008398 and 0.008586 | 0.01298 and 0.0125 | 0.01123 and 0.01167 | < 5.00
